{"source": "ChEMBL document CHEMBL1149741", "about": "“Further bioactive acetylenic compounds from the Caribbean sponge Cribrochalina vasculum” (J Nat Prod, 1992)", "key": {"[1]": {"assay": "(§1) Toxicity against Artemia salina", "assay_type": "organism-based", "settings": "in vivo"}, "[2]": {"system": "Artemia salina", "assay": "as §1", "assay_type": "organism-based", "settings": "in vivo"}, "[3]": {"system": "P388", "assay": "Antitumor activity against mouse P388 cells", "assay_type": "functional, cell-based"}, "[4]": {"system": "Lymphocyte", "assay": "Immunosuppressive activity against lymphocyte by mixed lymphocyte reaction assay", "assay_type": "functional, cell-based"}}, "note": "Active and inactive are the calls of the source. The rule behind the calls is not given here."}
{"smiles": "C#C[C@H](O)CCCCCCCCCCCCC(C)CCCC", "note": "(some centres undefined)", "values": [{"measurement": "LC50", "setting": "[1]", "result": 1.2, "unit": "µg/mL"}]}
{"smiles": "C#CC(O)/C=C/CCCCCCCCC/C=C/CCCCC(C)C", "note": "(centres undefined)", "values": [{"measurement": "Activity", "setting": "[2]", "result": "Toxic"}, {"measurement": "Activity", "setting": "[3]", "result": "Active"}, {"measurement": "Activity", "setting": "[4]", "result": "Active"}]}
{"smiles": "C#C[C@H](O)CCCCCCCCCCCCCCCC(C)C", "values": [{"measurement": "LC50", "setting": "[1]", "result": 1, "unit": "µg/mL"}]}
{"smiles": "C#C[C@H](O)/C=C/CCCCCCCCC(C)CCCCCCCC", "note": "(some centres undefined)", "values": [{"measurement": "LC50", "setting": "[1]", "result": 0.03, "unit": "µg/mL"}]}
{"smiles": "C#C[C@H](O)/C=C/CCCCCCCCC/C=C/CCCCCC", "values": [{"measurement": "LC50", "setting": "[1]", "result": 0.4, "unit": "µg/mL"}, {"measurement": "Activity", "setting": "[3]", "result": "Active"}, {"measurement": "Activity", "setting": "[4]", "result": "Active"}]}
{"smiles": "C#CC(O)/C=C/CCCCCCCCCCCCCCC", "note": "(centres undefined)", "values": [{"measurement": "Activity", "setting": "[2]", "result": "Toxic"}, {"measurement": "Activity", "setting": "[3]", "result": "Active"}, {"measurement": "Activity", "setting": "[4]", "result": "Active"}]}
{"smiles": "C#C/C=C/CCCCCCCCCC/C=C\\CCCCCC", "values": [{"measurement": "LC50", "setting": "[1]", "result": 1.1, "unit": "µg/mL"}]}
{"smiles": "C#C[C@H](O)/C=C/CCCCCCCCCCC(C)CCCC", "note": "(some centres undefined)", "values": [{"measurement": "LC50", "setting": "[1]", "result": 0.8, "unit": "µg/mL"}, {"measurement": "Activity", "setting": "[3]", "result": "Active"}, {"measurement": "Activity", "setting": "[4]", "result": "Active"}]}
{"smiles": "C#C[C@H](O)/C=C/CCCCCCCCCCCCCC(C)C", "values": [{"measurement": "LC50", "setting": "[1]", "result": 0.8, "unit": "µg/mL"}, {"measurement": "Activity", "setting": "[3]", "result": "Active"}, {"measurement": "Activity", "setting": "[4]", "result": "Active"}]}
